Assay results as given in patent US4943595A, “Perfluorochemicals and process for preparing the same” (The Green Cross Corporation, priority 1984, dated 1990).

How the values were obtained:
[1] = Vapor pressure of the perfluorochemical
[2] = comparison between perfluorochemicals; cited from earlier work

Structure (SMILES)	Vapor pressure ([1]; 38° C.)	further results
FC(F)(F)C(F)(F)C(F)(OC(F)(C(F)(F)F)C(F)(F)F)C(F)(C(F)(F)F)C(F)(F)F (stereo not shown) [Ex. 2, Perfluroo-3-isopropoxy-2-methylpentane]	–	Vapor pressure ([1]; 37.5° C.): 35-36 mmHg
FC(F)(F)C(F)(F)C(F)(F)C(F)(F)OC(F)(C(F)(F)C(F)(F)F)C(F)(C(F)(F)F)C(F)(F)F (stereo not shown) [Ex. 3, Perfluoro-3-n-butoxy-methylpentane]	–	Vapor pressure ([1]; 37.5° C.): 11-13 mmHg
FC(F)(F)C(F)(F)C(F)(OC(F)(F)C(F)(C(F)(F)F)C(F)(F)F)C(F)(C(F)(F)F)C(F)(F)F (stereo not shown) [Ex. 4, Perfluoro-3-isobutoxy-2-methyl pentane]	–	Vapor pressure ([1]; 37.5° C.): 14-15 mmHg
FC(F)(F)C(F)(F)C(F)(OC(F)(C(F)(F)C(F)(F)F)C(F)(C(F)(F)F)C(F)(F)F)C(F)(F)F (stereo not shown) [Ex. 5, Perfluoro-3-sec-butoxy-2-methylpentane]	–	Vapor pressure ([1]; 37.5° C.): 13-14 mmHg
FC(F)(F)C(F)(F)C(F)(OC(F)(F)C(F)(F)C(F)(C(F)(F)F)C(F)(F)F)C(F)(C(F)(F)F)C(F)(F)F (stereo not shown) [Ex. 6, Perfluoro-3-isopentoxy-2-methylpentane]	–	Vapor pressure ([1]; 37.5° C.): 8-9 mmHg
FC(F)(F)C(F)(F)OC(F)(C(F)(C(F)(F)F)C(F)(F)F)C(F)(C(F)(F)F)C(F)(F)F [Ex. 8, Perfluoro-3-ethoxy-2,4-dimethylpentane]	30-31 mmHg	–
FC(F)(F)C(F)(F)C(F)(F)C(F)(F)OC(F)(C(F)(C(F)(F)F)C(F)(F)F)C(F)(C(F)(F)F)C(F)(F)F [Ex. 10, Perfluoro-3-n-butoxy-2,4-dimethylpentane]	8-9 mmHg	–
FC(F)(F)C(F)(C(F)(F)F)C(F)(F)OC(F)(C(F)(C(F)(F)F)C(F)(F)F)C(F)(C(F)(F)F)C(F)(F)F [Ex. 11, Perfluoro-3-isobutoxy-2,4-dimethylpentane]	8-9 mmHg	–
FC(F)(F)C(F)(F)C(F)(F)C(OC(F)(C(F)(F)F)C(F)(F)F)(C(F)(F)F)C(F)(F)F [Ex. 13, Perfluoro-2-isopropoxy-2-methylpentane]	29-30 mmHg	–
FC(F)(F)C(F)(F)C(F)(F)C(F)(F)OC(C(F)(F)F)(C(F)(F)F)C(F)(F)C(F)(F)C(F)(F)F [Ex. 14, Perfluoro-2-n-butoxy-2-methylpentane]	13-14 mmHg	–
FC(F)(F)C(F)(F)C(F)(F)C(OC(F)(F)C(F)(C(F)(F)F)C(F)(F)F)(C(F)(F)F)C(F)(F)F [Ex. 15, Perfluoro-2-isobutoxy-2-methylpentane]	15-16 mmHg	–
FC(F)(F)C(F)(F)C(F)(F)C(OC(F)(C(F)(F)F)C(F)(F)C(F)(F)F)(C(F)(F)F)C(F)(F)F (stereo not shown) [Ex. 16, Perfluoro-2-sec-butoxy-2-methylpentane]	15-16 mmHg	–
FC(F)(F)C(F)(F)C(F)(F)C(OC(F)(F)C(F)(F)C(F)(C(F)(F)F)C(F)(F)F)(C(F)(F)F)C(F)(F)F [Ex. 17, Perfluoro-2-isovaleroxy-2-methylpentane]	9-10 mmHg	–
FC(F)(F)C(F)(F)OC(F)(F)C(F)(F)C(F)(F)C(F)(F)C(F)(F)C(F)(F)C(F)(F)F [Ex. 19, Perfluoro-1-ethoxyheptane]	33 mmHg	–
FC(F)(F)C(F)(F)C(F)(F)C(F)(F)C(F)(F)C(F)(F)C(F)(F)OC(F)(C(F)(F)F)C(F)(F)F [Ex. 20, Perfluoro-1-isopropoxyheptane]	14-15 mmHg	–
FC(F)(F)C(F)(F)C(F)(F)C(F)(F)OC(F)(F)C(F)(F)C(F)(F)C(F)(F)C(F)(F)C(F)(F)C(F)(F)F [Ex. 21, Perfluoro-1-n-butoxyheptane]	8-9 mmHg	–
FC(F)(F)C(F)(F)C(F)(F)C(F)(F)C(F)(F)C(F)(F)C(F)(F)OC(F)(F)C(F)(C(F)(F)F)C(F)(F)F [Ex. 22, Perfluoro-1-isobutoxyheptane]	8-9 mmHg	–
FC(F)(F)C(F)(F)C(F)(F)C(F)(F)C(F)(F)C(F)(F)C(F)(F)OC(F)(C(F)(F)F)C(F)(F)C(F)(F)F (stereo not shown) [Ex. 23, Perfluoro-1-sec-butoxyheptane]	9-10 mmHg	–
FC(F)(F)C(F)(F)C(F)(F)OC(F)(C(F)(F)C(F)(F)F)C(F)(C(F)(F)F)C(F)(F)F (stereo not shown) [Example 1, perfluoro-3-n-propoxy-2-methylpentane]	29 mmHg	–
FC(F)(F)C(F)(F)C(F)(F)OC(F)(C(F)(C(F)(F)F)C(F)(F)F)C(F)(C(F)(F)F)C(F)(F)F [Example 7, Perfluoro-3-propoxy-2,4-dimethylpentane]	16-17 mmHg	–
FC(F)(F)C(F)(F)C(F)(F)OC(C(F)(F)F)(C(F)(F)F)C(F)(F)C(F)(F)C(F)(F)F [Example 12, Perfluoro-2-n-propoxy-2-methylpentane]	33 mmHg	–
FC(F)(F)OC(F)(C(F)(F)F)C(F)(F)C(C(F)(F)F)(C(F)(F)C(F)(F)F)C(F)(F)C(F)(F)F (stereo not shown) [Example 24, perfluoro-2-methoxy-4-ethyl-4-methylhexane]	17-18 mmHg	–
FC(F)(F)C(F)(F)OC(F)(C(F)(F)F)C(F)(F)C(C(F)(F)F)(C(F)(F)C(F)(F)F)C(F)(F)C(F)(F)F (stereo not shown) [Example 25, perfluoro-2-ethoxy-4-ethyl-4-methylhexane]	8-9 mmHg	–

Structure (SMILES)	Vapor pressure ([1]; 38° C.)	further results
FC(F)(F)OC(F)(C(F)(F)F)C(F)(C(F)(C(F)(F)F)C(F)(F)F)C(F)(C(F)(F)F)C(F)(F)F (stereo not shown) [Example 26, perfluoro-2-methoxy-3-isopropyl-4-methylpentane]	18-19 mmHg	–
FC(F)(F)C(F)(F)OC(F)(C(F)(F)F)C(F)(C(F)(C(F)(F)F)C(F)(F)F)C(F)(C(F)(F)F)C(F)(F)F (stereo not shown) [Example 27, perfluoro-2-ethoxy-3-isopropyl-4-methylpentane]	10-11 mmHg	–
FC(F)(F)C(F)(F)OC(F)(F)C(F)(C(F)(F)F)C(F)(OC(F)(F)C(F)(F)F)C(F)(F)C(F)(F)F (stereo not shown) [Example 28, perfluoro-1,3-diethoxy-2-methylpentane]	13-14 mmHg	–
FC(F)(F)OC(F)(F)C(F)(C(F)(F)F)C(F)(OC(F)(F)F)C(F)(F)C(F)(F)F (stereo not shown) [Example 29, perfluoro-1,3-dimethoxy-2-methylpentane]	48-50 mmHg	–
FC(F)(F)OC(OC(F)(F)C(F)(F)C(F)(F)C(F)(F)C(F)(F)F)(C(F)(F)F)C(F)(F)F [Example 30, perfluoro-2-pentoxy-2-methoxypropane]	28-29 mmHg	–
FC(F)(F)C(F)(F)OC(OC(F)(F)C(F)(F)C(F)(F)C(F)(F)C(F)(F)F)(C(F)(F)F)C(F)(F)F [Example 31, perfluoro-2-pentoxy-2-ethoxy propane]	13-14 mmHg	–
FC(F)(F)C(F)(F)C(F)(F)OC(OC(F)(F)C(F)(F)C(F)(F)F)(C(F)(F)F)C(F)(F)F [Example 32, perfluoro-2,2-di-n-propoxy-propane]	29-30 mmHg	–
FC(F)(F)N(C(F)(F)F)C(F)(F)C(F)(C(F)(F)F)C(F)(F)C(F)(F)C(F)(F)F (stereo not shown) [Example 33, perfluoro-1-dimethylamino-2-methylpentane]	37-38 mmHg	–
FC(F)(F)N(C(F)(F)C(F)(F)F)C(F)(F)C(F)(C(F)(F)F)C(F)(F)C(F)(F)C(F)(F)F (stereo not shown) [Example 34, perfluoro-1-ethylmethylamino-2-methylpentane]	21 mmHg	–
FC(F)(F)C(F)(F)N(C(F)(F)C(F)(F)F)C(F)(F)C(F)(C(F)(F)F)C(F)(F)C(F)(F)C(F)(F)F (stereo not shown) [Example 35, perfluoro-1-diethylamino-2-methylpentane]	8-9 mmHg	–
FC(F)(F)N(C(F)(F)F)C(F)(F)C(F)(C(F)(F)F)C(F)(F)C(F)(C(F)(F)F)C(F)(F)F (stereo not shown) [Example 36, Perfluoro-1-dimethylamino-2,4-dimethylpentane]	18-19 mmHg	–
FC(F)(F)N(C(F)(F)C(F)(F)F)C(F)(F)C(F)(C(F)(F)F)C(F)(F)C(F)(C(F)(F)F)C(F)(F)F (stereo not shown) [Example 37, perfluoro-1-ethyl-methylamino-2,4-dimethylpentane]	12-13 mmHg	–
FC(F)(F)N(C(F)(F)F)C(C(F)(F)F)(C(F)(F)F)C(F)(F)C(F)(F)C(F)(F)F [Example 38, perfluoro-2-dimethylamino-2-methylpentane]	37-38 mmHg	–
FC(F)(F)N(C(F)(F)C(F)(F)F)C(C(F)(F)F)(C(F)(F)F)C(F)(F)C(F)(F)C(F)(F)F [Example 39, Perfluoro-2-methylethylamino-2-methylpentane]	20-21 mmHg	–
FC(F)(F)N(C(F)(F)C(F)(F)C(F)(F)F)C(C(F)(F)F)(C(F)(F)F)C(F)(F)C(F)(F)C(F)(F)F [Example 40, perfluoro-2-methylpropylamino-2-methylpentane]	9-10 mmHg	–
FC(F)(F)N(C(F)(F)F)C(F)(F)C(C(F)(F)F)(C(F)(F)F)C(F)(F)C(F)(F)C(F)(F)F [Example 41, Perfluoro-1-dimethylamino-2,2-dimethylpentane]	18-19 mmHg	–
FC(F)(F)N(C(F)(F)F)C(F)(C(F)(F)C(F)(F)F)C(F)(C(F)(F)F)C(F)(F)F (stereo not shown) [Example 42, 3-perfluoro-3-dimethylamino-2-methylpentane]	37-38 mmHg	–
FC(F)(F)C(F)(F)N(C(F)(F)C(F)(F)F)C(F)(C(F)(F)C(F)(F)F)C(F)(C(F)(F)F)C(F)(F)F (stereo not shown) [Example 43, perfluoro-3-diethylamino-2-methylpentane]	9-10 mmHg	–
FC(F)(F)N(C(F)(F)F)C(F)(C(F)(C(F)(F)F)C(F)(F)F)C(F)(C(F)(F)F)C(F)(F)F [Example 44, perfluoro-3-dimethylamino-2,4-dimethylpentane]	21-22 mmHg	–
FC(F)(F)C(F)(F)C(F)(F)C(F)(F)C1(F)C(F)(F)C(F)(F)C(F)(F)C(F)(F)C1(F)F [III]	–	elimination rate (in words) [2]: IV>>III≥I >II
FC(F)(F)C(F)(F)C1(C(F)(F)F)C(F)(C(F)(F)F)OC(F)(C(F)(F)F)C1(F)C(F)(F)F (stereo not shown) [II]	–	elimination rate (in words) [2]: IV>>III≥I >II
FC1(F)C(F)(F)C(F)(F)C2(F)C(F)(F)C(F)(F)C(F)(F)C(F)(F)C2(F)C1(F)F (stereo not shown) [IV]	–	elimination rate (in words) [2]: IV>>III≥I >II
FC(F)(F)C(F)(F)C(F)(F)C(F)(F)C(F)(F)OC(F)(F)C(F)(F)C(F)(F)C(F)(F)C(F)(F)F [I]	–	elimination rate (in words) [2]: IV>>III≥I >II
